Measured values as given in ChEMBL document CHEMBL6127100, “Plant based steroidal and triterpenoid sapogenins: Chemistry on diosgenin and biological aspects” (Eur J Med Chem, 2024).

Tests used:
Format in all cases: functional, cell-based
SH-SY5Y = assay: Cytotoxicity against human SH-SY5Y cells assessed as reduction in cell viability incubated for 24 hrs by MTT assay
HuCC-A1 = assay: Cytotoxicity against human HuCC-A1 cells assessed as reduction in cell growth incubated for 3 days by micro-titer plate reader analysis; settings: HuCC-A1, 72 h
MDA-MB-231 [1] = assay: Cytotoxicity against human MDA-MB-231 cells assessed as reduction in cell growth incubated for 48 hrs by MTT assay; settings: MDA-MB-231, 48 h
KB = assay: Cytotoxicity against human KB cells assessed as reduction in cell growth incubated for 3 days by micro-titer plate reader analysis; settings: 72 h
HeLa [2] = assay: Cytotoxicity against human HeLa cells assessed as reduction in cell growth incubated for 48 hrs by MTT assay
HepG2 [3] = assay: Cytotoxicity against human HepG2 cells assessed as reduction in cell viability incubated for 24 hrs by MTT assay; settings: HepG2, 24 h
DU-145 = assay: Cytotoxicity against human DU-145 cells
T98G = assay: Antiproliferative activity against human T98G cells assessed as inhibition of cell growth incubated for 72 hrs by celltiter-glo assay
CCRF-CEM = assay: Cytotoxicity against human CCRF-CEM cells
HeLa [4] = assay: Antiproliferative activity against human HeLa cells assessed as reduction in cell viability incubated for 24 hrs by MTT assay
HepG2 [5] = assay: Antiproliferative activity against human HepG2 cells assessed as reduction in cell viability incubated for 24 hrs ny MTT assay; settings: HepG2, 24 h
HeLa [6] = assay: Antiproliferative activity against human HeLa cells assessed as reduction in cell growth after 48 hrs by MTT assay
Ca-Ski [7] = assay: Antiproliferative activity against human Ca-Ski cells assessed as reduction in cell growth after 48 hrs by MTT assay
Ca-Ski [8] = assay: Cytotoxicity against human Ca-Ski cells
HeLa [9] = assay: Cytotoxicity against human HeLa cells
MDA-MB-231 [10] = assay: Cytotoxicity against human MDA-MB-231 cells
U-937 = assay: Cytotoxicity against human U-937 cells

`CCCC(N)C(=O)O[C@H]1CC[C@@]2(C)C(=CC[C@H]3[C@@H]4C[C@@H]5O[C@]6(CC[C@@H](C)CO6)[C@@H](C)[C@@H]5[C@@]4(C)CC[C@@H]32)C1` (some centres undefined) gave an IC50 (SH-SY5Y) of 6.9 µM.
With `C[C@@H]1CC[C@@]2(OC1)O[C@H]1C[C@H]3[C@@H]4CC=C5C[C@@H](O[C@@H]6O[C@H](CO)[C@@H](O[C@@H]7O[C@@H](C)[C@H](O[C@@H]8O[C@@H](C)[C@H](O)[C@@H](O)[C@H]8O)[C@@H](O)[C@H]7O)[C@H](O)[C@H]6O[C@@H]6O[C@@H](C)[C@H](O)[C@@H](O)[C@H]6O)CC[C@]5(C)[C@H]4CC[C@]3(C)[C@H]1[C@@H]2C` [PENNOGENIN RAHAMNOSYL CHACOTRIOSIDE] the IC50 (HuCC-A1) was 3 µM, the IC50 (MDA-MB-231 [1]) was 3.1 µM and the IC50 (KB) was 6.2 µM. For the same compound, the IC50 (HeLa [2]) was 3 µM and the IC50 (HepG2 [3]) was 6.33 µM.
With `C[C@@H]1CC[C@@]2(OC1)O[C@H]1C[C@H]3[C@@H]4CC=C5C[C@@H](O[C@@H]6O[C@H](CO)[C@@H](O[C@@H]7O[C@H](CO)[C@@H](O)[C@H](O)[C@H]7O)[C@H](O)[C@H]6O[C@@H]6O[C@@H](C)[C@H](O)[C@@H](O)[C@H]6O)CC[C@]5(C)[C@H]4CC[C@]3(C)[C@H]1[C@@H]2C` [DELTONIN] the IC50 (HuCC-A1) was 3.4 µM, the IC50 (MDA-MB-231 [1]) was 1.1 µM and the IC50 (KB) was 1.2 µM. The IC50 (HeLa [2]) was 0.9 µM.
`C[C@@H]1CC[C@@]2(OC1)O[C@H]1C[C@H]3[C@@H]4CC=C5C[C@@H](OC(=O)CN(C)C(=O)OC(C)(C)C)CC[C@]5(C)[C@H]4CC[C@]3(C)[C@H]1[C@@H]2C` gave an IC50 (SH-SY5Y) of 15.2 µM.
`COc1cccc(COc2ccc(-c3cn(C4C[C@H]5[C@@H]6C[C@@H]7O[C@]8(CC[C@@H](C)CO8)[C@@H](C)[C@@H]7[C@@]6(C)CC[C@@H]5[C@@]5(C)CC[C@H](O)CC45O)nn3)cc2)c1` (some centres undefined) gave an IC50 (DU-145) of 10.5 µM, an IC50 (T98G) of 7.51 µM and an IC50 (CCRF-CEM) of 5.73 µM.
With `C[C@H](CC[C@H]1O[C@H]2C[C@H]3[C@@H]4CC=C5C[C@@H](O[Si](C)(C)C(C)(C)C)CC[C@]5(C)[C@H]4CC[C@]3(C)[C@H]2[C@@H]1C)COC1=C(Cl)C(=O)c2ccccc2C1=O` the IC50 (HeLa [4]) was 17.4 µM and the IC50 (HepG2 [5]) was 5.81 µM.
For `CC(C)C[C@H](NC(=O)OC(C)(C)C)C(=O)O[C@H]1CC[C@@]2(C)C(=CC[C@H]3[C@@H]4C[C@@H]5O[C@]6(CC[C@@H](C)CO6)[C@@H](C)[C@@H]5[C@@]4(C)CC[C@@H]32)C1`, the IC50 (SH-SY5Y) was 9.5 µM.
`Cc1ccc2c(c1)C(=O)C(Cl)=C(OC[C@H](C)CC[C@H]1O[C@H]3C[C@H]4[C@@H]5CC=C6C[C@@H](O[Si](C)(C)C(C)(C)C)CC[C@]6(C)[C@H]5CC[C@]4(C)[C@H]3[C@@H]1C)C2=O` showed an IC50 (HeLa [4]) of 17.9 µM and an IC50 (HepG2 [5]) of 10.9 µM.
Compound `C[C@@H]1CC[C@@]2(OC1)O[C@H]1C[C@H]3[C@@H]4CC=C5C[C@@H](OC(=O)[C@@H](N)Cc6ccccc6)CC[C@]5(C)[C@H]4CC[C@]3(C)[C@H]1[C@@H]2C` has an IC50 (SH-SY5Y) of 11.2 µM.
`C[C@@H]1CC[C@@]2(OC1)O[C@H]1C[C@H]3[C@@H]4CC=C5C[C@@H](O)CC[C@]5(C)[C@H]4CC[C@]3(C)[C@H]1[C@@H]2C` [DISOGENIN] was tested, and the IC50 (HeLa [6]) was 31.4 µM and the IC50 (Ca-Ski [7]) was 80 µM.
In the case of `C[C@@H]1CC[C@@]2(OC1)O[C@H]1C[C@H]3[C@@H]4CC=C5C[C@@H](O[C@@H]6O[C@H](CO)[C@@H](O)[C@H](O)[C@H]6O[C@@H]6O[C@@H](C)[C@H](O)[C@@H](O)[C@H]6O)CC[C@]5(C)[C@H]4CC[C@]3(C)[C@H]1[C@@H]2C` [OPHIOPOGONIN C], the IC50 (HuCC-A1) is reported as 5.8 µM, the IC50 (MDA-MB-231 [1]) is reported as 3.5 µM and the IC50 (KB) is reported as 4.2 µM. For the same compound, the IC50 (HeLa [2]) was 3.7 µM and the IC50 (HepG2 [3]) was 2.92 µM.
With `C[C@@H]1CC[C@@]2(OC1)O[C@H]1C[C@H]3[C@@H]4C/C(=N\O)C5=C/C(=N/O)CC[C@]5(C)[C@H]4CC[C@]3(C)[C@H]1[C@@H]2C` the IC50 (Ca-Ski [8]) was 22 µM and the IC50 (HeLa [9]) was 19 µM.
With `C[C@@H]1CC[C@@]2(OC1)O[C@H]1C[C@H]3[C@@H]4CC=C5C[C@@H](O[C@@H]6O[C@H](CO)[C@@H](O[C@@H]7O[C@@H](C)[C@H](O)[C@@H](O)[C@H]7O)[C@H](O)[C@H]6O[C@@H]6O[C@@H](C)[C@H](O)[C@@H](O)[C@H]6O)CC[C@]5(C)[C@H]4CC[C@]3(C)[C@H]1[C@@H]2C` [DIOSCIN] the IC50 (HuCC-A1) was 8.4 µM, the IC50 (HeLa [6]) was 2 µM and the IC50 (MDA-MB-231 [1]) was 1.7 µM. For the same compound, the IC50 (KB) was 6.2 µM, the IC50 (Ca-Ski [7]) was 2 µM and the IC50 (HeLa [2]) was 3.6 µM. The IC50 (HepG2 [3]) was 3.09 µM.
With `COc1cc(-c2cn(C3C[C@H]4[C@@H]5C[C@@H]6O[C@]7(CC[C@@H](C)CO7)[C@@H](C)[C@@H]6[C@@]5(C)CC[C@@H]4[C@@]4(C)CC[C@H](O)CC34O)nn2)cc(OC)c1OC` (some centres undefined) the IC50 (MDA-MB-231 [10]) was 16.1 µM, the IC50 (U-937) was 5.45 µM and the IC50 (CCRF-CEM) was 6.26 µM.
